Measurements reported in patent US20240270758A1, “PYRIDINO-OR PYRIMIDO-CYCLIC COMPOUND, PREPARATION METHOD THEREFOR AND MEDICAL USE THEREOF” (Genfleet Therapeutics (Shanghai) Inc., priority 2021, published 2024).

Key:
Format in all cases: cell-based, human
[1] = system: p-ERK in AGS cells (KRAS^G12D mutation); test: Cell p-ERK detection assay; details: 3 h incubation, HTRF
Description: AGS was purchased from ATCC; Cat. NO.: CRL-1739; F12K was purchased from Gibco; Cat. NO.: 21127-022; FBS was purchased from Gibco; Cat. NO.: 10099-141C; Trypsin (containing EDTA) was purchased from Gibco; Cat. NO.: 25200-072; DMSO was purchased from VWRAMRESCO; Cat. NO.: 0231-500ML; 96-well cell culture plate was purchased from Corning; Cat. NO.: 3599; An white background opaque 96-well plate was purchased from Cisbio; Cat. NO.: 66PL96025; Advance ERK phospho-T202/Y204 kit was purchased from Cisbio; Cat. NO.: 64AERPEH; Cell Counters were purchased from CHEMOMETEC; Model NO.: NC-200; microplate reader was purchased from PerkinElmer; Model NO.: Envison.
AGS is an endogenous human gastric adenocarcinoma cell line containing KRAS^G12D mutation, cultured in F12K+10% FBS medium. On the first day of the experiment, cells in the logarithmic growth phase were taken, digested with trypsin (containing EDTA), collected, and counted, and approximately 20,000 cells/well were inoculated in 96-well cell culture plates and cultured overnight in a 5% CO2 incubator. A 1000×3.16-fold gradient concentration stock of the compound was prepared using DMSO, diluted 200-fold into a 5× compound stock using the medium described above, and a 5× compound stock was added to each cell culture well the day after cell inoculating at a final concentration of 1× and a DMSO content of 0.1%. DMSO was used as an experimental control. After the compound was added and the incubation was continued for 3 h, the medium in the culture wells was removed, […] of cell lysis solution (from Advance ERK phospho-T202/Y204 kit, the same below) was added to each well, mixed well and incubated for 30 min, then […] of the mixed solution was transferred to a white background opaque 96-well plate, and another well was taken as a blank well with adding […] of cell lysis solution. After the transfer, […] of p-ERK HTRF antibody mixed solution (from Advance ERK phospho-T202/Y204 kit) was added to each well, after incubation for 4 h, HTRF fluorescence value (RLU) was read by a microplate reader, and p-ERK level inhibition ratio of the compound was calculated IR (%)=(RLU control-RLU compound)/(RLU control-RLU blank)×100%, compound concentration and corresponding cell p-ERK level inhibition ratio were fitted using Prism 8 four-parameter method, and IC50 value was calculated.

[2] = system: AGS cells (KRAS^G12D mutation); test: Cell proliferation inhibition assay (3D, CellTiter-Glo), AGS; details: 3D cell model, 5 days
From the text: (§1) AsPC-1 was purchased from ATCC; Cat. NO.: CRL-1682; AGS was purchased from ATCC; Cat. NO.: CRL-1739; RPMI1640 was purchased from Gibco; Cat. NO.: 11875-093 2235123; F12K was purchased from Gibco; Cat. NO.: 21127-022; FBS was purchased from Gibco; Cat. NO.: 10099-141C; Trypsin (containing EDTA) was purchased from Gibco; Cat. NO.: 25200-072; CellTiter Glo-3D was purchased from Progema; Cat. NO.: G9683; 384-well sphere plates were purchased from coming; Cat. NO.: 3830; White background opaque 384-well plates were purchased from coming; Cat. NO.: 3570; Cell Counters were purchased from CHEMOMETEC; Model NO.: NC-200; microplate reader was purchased from PerkinElmer; Model NO.: Envison;
(§2) AsPC-1 is an endogenous human pancreatic cancer cell containing KRAS^G12D mutation, which is cultured in RPMI-1640 medium containing 10% FBS; AGS human gastric cancer cell line containing KRAS^G12D mutation, cultured in F-12K medium containing 10% FBS. Cells in the logarithmic growth phase were taken, digested with trypsin (containing EDTA), harvested and counted, and inoculated with 800 AsPC-1 cells/well or 400 AGS cells/well, respectively, in 384-well sphere plates and cultured overnight at 5% C02 to establish a 3D cell model. A 3.16-fold gradient concentration stock solution of 1000× compound was prepared using DMSO, diluted 100-fold into a 10× compound stock solution using media, and a 10× compound stock solution was added to each cell culture well the day after cell inoculating at a final concentration of 1× with a DMSO content of 0.1%. DMSO was used as an experimental control (control) and culture medium as a blank control (blank). After the addition of compounds, the cells were cultured for 5 days. […] CellTiter-Glo working solution was added to each well, mixed well, and incubated for 30 min. After standing for 30 min at room temperature, 40 μl of the mixed solution was transferred to a white background opaque 384-well plate. Luminescence chemiluminescence value was read on a microplate reader, and the cell proliferation inhibition ratio was calculated, IR (%)=(RLU control-RLU compound)/(RLU control-RLU blank)×100%. XLFit four-parameter method was used to fit the gradient dilution concentration of compounds and the corresponding cell proliferation inhibition ratio, and the IC50 value was calculated. […] Results for exemplary of the example compounds are shown in Table 3 below. - indicates not detected.

[3] = system: AsPC-1 cells (KRAS^G12D mutation); test: Cell proliferation inhibition assay (3D, CellTiter-Glo), AsPC-1; details: 3D cell model, 5 days
From the text: as §1, §2

| SMILES | IC50 ([1]; Homo sapiens, AGS, 3 h) | IC50 ([2]; Homo sapiens, AGS, 120 h) | IC50 ([3]; Homo sapiens, ASPC1, 120 h) | IC50 [1] | IC50 [2] | IC50 [3] |
| --- | --- | --- | --- | --- | --- | --- |
| C#Cc1cccc2cc(O)cc(-c3ncc4c(N5C[C@H]6CC[C@@H](C5)N6)nc(OCC56CC(=C)CN5CC5(CC5)C6)nc4c3F)c12 (stereo partly drawn) [Example Z23, 4-(4-((1R,5S)-3,8-diazabicyclo[3.2.1]octan-3-yl)-8-fluoro-2-((6′-methylenedihydro-1′H,3′H-spiro[cyclopropane-1,2′-pyrrolizin]-7a′(5′H)-yl)methoxy)pyrido[4,3-d]pyrimidin-7-yl)-5-ethynylnaphthalen-2-ol] | 0.76 nM | 4.7 nM | 33.2 nM |  |  |  |
| C=C1CN2CCCC2(COc2nc(N3C[C@H]4CC[C@@H](C3)N4)c3cnc(-c4cc(O)cc5cccc(F)c45)c(F)c3n2)C1 (stereo partly drawn) [Example Z24, 4-(4-((1R,5S)-3,8-diazabicyclo[3.2.1]octan-3-yl)-8-fluoro-2-((2-methylenetetrahydro-1H-pyrrolizin-7a(5H)-yl)methoxy)pyrido[4,3-d]pyrimidin-7-yl)-5-fluoronaphthalen-2-ol] | 3.59 nM | 3.3 nM | 56 nM |  |  |  |
| C#Cc1cccc2cc(O)cc(-c3ncc4c(N5C[C@H]6CC[C@@H](C5)N6)nc(OCC56CCCN5CCC6=C)nc4c3F)c12 (stereo partly drawn) [Example Z25, 4-(4-((1R,5S)-3,8-diazabicyclo[3.2.1]octan-3-yl)-8-fluoro-2-((1-methylenetetrahydro-1H-pyrrolizin-7a(5H)-yl)methoxy)pyrido[4,3-d]pyrimidin-7-yl)-5-ethynylnaphthalen-2-ol] | 6.84 nM | 24.9 nM | 70.7 nM |  |  |  |
| C#Cc1cccc2cc(O)cc(-c3ncc4c(N5C[C@H]6CC[C@@H](C5)N6)nc(OCC56CCCN5CC(=C(F)F)C6)nc4c3F)c12 (stereo partly drawn) [Example Z27, 4-(4-((1R,5S)-3,8-diazabicyclo[3.2.1]octan-3-yl)-2-((2-(difluoromethylene)tetrahydro-1H-pyrrolizine 7a(5H)-yl)methoxy)-8-fluoropyrido[4,3-d]pyrimidin-7-yl)-5-ethynylnaphthalen-2-ol] | 1.1 nM | 3.1 nM | 6.9 nM |  |  |  |
| C#Cc1cccc2cc(O)cc(-c3ccc4c(N5CC6CCC(C5)N6)nc(OCC56CCCN5CC(=C)C6)nc4c3F)c12 [Example Z99, 4-(4-(1R,5S)-3,8-diazabicyclo[3.2.1]octan-3-yl)-8-fluoro-2-((2-methylenetetrahydro-1H-pyrrolizin-7a(5H)-yl)methoxy)quinazolin-7-yl)-5-ethynylnaphthalen-2-ol] |  |  |  | 2.9 nM | 5.2 nM | 36.6 nM |
| C#Cc1cccc2cc(O)cc(-c3ncc4c(N5C[C@H]6CC[C@@H](C5)N6)nc(OCC56CC(=C)CN5CCC65CC5)nc4c3F)c12 (stereo partly drawn) [Example Z106, 4-(4-((1R,5S)-3,8-diazabicyclo[3.2.1]octan-3-yl)-8-fluoro-2-((6′-methylenetetrahydrospiro[cyclopropane-1,1′-pyrrolizin]-7a′(5′H)-yl)methoxy)pyrido[4,3-d]pyrimidin-7-yl)-5-ethynylnaphthalen-2-ol] | 1.36 nM | 4.6 nM | 14.7 nM |  |  |  |
| C#Cc1cccc2cccc(-c3ncc4c(N5C[C@H]6CC[C@@H](C5)N6)nc(OCC56CC(=C)CN5CC(=C)C6)nc4c3F)c12 [Example Z190, 4-((1R,5S)-3,8-diazabicyclo[3.2.1]octan-3-yl)-2-((2,6-dimethylenetetrahydro-1H-pyrrolizin-7a(5H)-yl)methoxy)-7-(8-ethynylnaphthalen-1-yl)-8-fluoropyrido[4,3-d]pyrimidine] | 105 nM | 204 nM | 485 nM |  |  |  |
| C#Cc1cccc2cc(N)cc(-c3ncc4c(N5C[C@H]6CC[C@@H](C5)N6)nc(OCC56CC(=C)CN5CC(=C)C6)nc4c3F)c12 [Example Z206, 4-(4-((1R,5S)-3,8-diazabicyclo[3.2.1]octan-3-yl)-2-((2,6-dimethylenetetrahydro-1H-pyrrolizin-7a(5H)-yl)methoxy)-8-fluoropyrido[4,3-d]pyrimidin-7-yl)-5-ethynylnaphthalen-2-amine] |  |  |  | 5.47 nM | 20.1 nM | 35.4 nM |
| C#Cc1cccc2cc(O)cc(-c3ncc4c(N5C[C@@H]6CC[C@@H](N6)[C@H]5C)nc(OCC56CC(C)CN5CC(C)C6)nc4c3F)c12 (stereo partly drawn) [Example Z207, 4-(2-((2,6-dimethyltetrahydro-1H-pyrrolizin-7a(5H)-yl)methoxy)-8-fluoro-4-((1R, 2R, 5S)-2-methyl-3,8-diazabicyclo[3.2.1]octan-3-yl)pyrido[4,3-d]pyrimidin-7-yl)-5-ethynylnaphthalen-2-ol] | 13.4 nM | 32 nM | 91.1 nM |  |  |  |
| C#Cc1c(F)ccc2cc(O)cc(-c3ncc4c(N5C[C@H]6CC[C@@H](C5)N6)nc(OCC56CC(=C)CN5[C@H]5C[C@H]5C6)nc4c3F)c12 (stereo partly drawn) [Example Z210, 4-(4-((1R,5S)-3,8-diazabicyclo[3.2.1]octan-3-yl)-8-fluoro-2-(((1aS,6aS)-4-methylenehexahydrocyclopropa[b]pyrrolizin-5a(3H)-yl)methoxy)pyrido[4,3-d]pyrimidin-7-yl)-5-ethynyl-6-fluoronaphthalen-2-ol] | 16.6 nM | 26 nM | 176 nM |  |  |  |
| C#Cc1c(F)ccc2cc(O)cc(-c3ncc4c(N5C[C@H]6CC[C@@H](C5)N6)nc(OCC56CC(=C)CN5CC(=C)C6)nc4c3Cl)c12 [Example Z211, 4-(4-((1R,5S)-3,8-diazacyclo[3.2.1]octan-3-yl)-8-chloro-2-((2,6-dimethylenetetrahydro-1H-pyrrolizin-7a(5H)-yl)methoxy)pyrido[4,3-d]pyrimidin-7-yl)-5-ethynyl-6-fluoronaphthalen-2-ol] |  |  |  | 5.47 nM | 4.8 nM | 71.9 nM |
| C#Cc1cccc2cc(N)c(F)c(-c3ncc4c(N5C[C@H]6CC[C@@H](C5)N6)nc(OCC56CC(=C)CN5CC(=C)C6)nc4c3F)c12 [Example Z213, 4-(4-((1R,5S)-3,8-diazabicyclo[3.2.1]octan-3-yl)-2-((2,6-dimethylenetetrahydro-1H-pyrrolizin-7a(5H)-yl)methoxy)-8-fluoropyrido[4,3-d]pyrimidin-7-yl)-5-ethynyl-3-fluoronaphthalen-2-amine] | 62.9 nM | 57.5 nM | 335 nM |  |  |  |
| C#Cc1cccc2cc(N)cc(-c3ncc4c(N5C[C@H]6CC[C@@H](C5)N6)nc(OCC56CC(=C)CN5CC(=C)C6)nc4c3F)c12 [Example Z214, 4-(4-((1R,5S)-3,8-diazabicyclo[3.2.1]octan-3-yl)-2-((2,6-dimethylenetetrahydro-1H-pyrrolizin-7a(5H)-yl)methoxy)-8-fluoropyrido[4,3-d]pyrimidin-7-yl)-5-ethynylnaphthalen-2-amine] |  |  |  | 105 nM | 106 nM | 611 nM |
